Results: PMC12898745, “VOCs Profiling and Quality Assessment of Milk Employing Odorant-Binding Proteins-Based Fluorescence Biosensor” (International Journal of Molecular Sciences, 2026)
Where two headings read alike, the source gives them in different places.

T1: bOBP (Bos taurus, UniProt P07435)
T1 sequence (P07435 1-159): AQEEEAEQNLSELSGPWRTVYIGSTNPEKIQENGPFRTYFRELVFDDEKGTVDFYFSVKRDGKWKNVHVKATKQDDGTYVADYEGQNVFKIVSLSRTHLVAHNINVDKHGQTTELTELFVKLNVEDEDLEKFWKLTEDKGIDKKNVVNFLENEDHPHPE

T2: pOBP (Sus scrofa, UniProt P81245)
T2 sequence (P81245 1-157): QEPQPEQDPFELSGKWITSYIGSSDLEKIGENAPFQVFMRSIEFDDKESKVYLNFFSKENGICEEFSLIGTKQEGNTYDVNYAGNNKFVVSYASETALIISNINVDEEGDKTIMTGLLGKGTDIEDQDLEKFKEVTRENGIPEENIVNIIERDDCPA

T3: bOBP (Bos taurus, UniProt P07435, H155C/INS121G/W64C)
T3 construct: His tag; made in house
T3 sequence (P07435 with tags, fused parts or gaps W64C/INS121G/H155C): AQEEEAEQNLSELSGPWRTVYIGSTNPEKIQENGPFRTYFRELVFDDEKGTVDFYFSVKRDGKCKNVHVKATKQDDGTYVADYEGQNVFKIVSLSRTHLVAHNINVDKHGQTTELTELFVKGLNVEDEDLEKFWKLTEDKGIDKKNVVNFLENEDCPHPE

B1: pOBP: porcine odorant-binding protein, a typical monomeric lipocalin used as molecular recognition element (protein, UniProt P81245 1-157, looked up)
Odorant-binding protein: QEPQPEQDPFELSGKWITSYIGSSDLEKIGENAPFQVFMRSIEFDDKESKVYLNFFSKENGICEEFSLIGTKQEGNTYDVNYAGNNKFVVSYASETALIISNINVDEEGDKTIMTGLLGKGTDIEDQDLEKFKEVTRENGIPEENIVNIIERDDCPA

Key:
[1] = molecular target: T1, bOBP; experiment: Fluorescence titration with 1-AMA and competitive FRET assay on bOBP; format: binding, bovine; settings: read-out: bOBP Kd ± SD; non-linear fitting; PBS pH 7.4; VOCs by displacement of 1-AMA
Method: (§1) The ability of pOBP and bOBP to bind 1-AMA was assessed through fluorescence titration experiments. […] However, upon binding 1-AMA to OBPs, two major spectral changes were observed: • A blue-shift in the emission maximum to 481 nm, along with a significant increase in fluorescence intensity. • A decrease in the tryptophan fluorescence emission at 340 nm.
A competitive FRET assay was performed to study the interaction between the OBP and the selected VOCs. In the assay, a solution of OBPs in the presence of 1-AMA was titrated with increasing concentrations of VOCs. The fluorescence emissions at 481 nm (1-AMA bound state) and 340 nm (tryptophan emission) were recorded. A progressive decrease of 1-AMA fluorescence emission and a partial recovery of the protein tryptophan emission were observed. […] The variations in the FRET signals, due to competitive binding, were used to quantify the VOC bound to the protein.
Steady-state fluorescence measurements were conducted using an ISS K2 Frequency-Domain Fluorometer (ISS Inc., Champaign, IL, USA) with a 1.0 cm path length quartz cuvette. Fluorescence spectra of bOBP and pOBP samples were recorded, ensuring optical densities below 0.1 OD at 295 nm to prevent inner filter effects. […] The OBPs-VOCs interactions were studied by a fluorescence titration approach. […]

[2] = molecular target: T2, pOBP; experiment: Fluorescence titration with 1-AMA and competitive FRET assay on pOBP; format: binding, porcine
Method: as §1
A competitive FRET assay was performed to study the interaction between the OBP and the selected VOCs. In the assay, a solution of OBPs in the presence of 1-AMA was titrated with increasing concentrations of VOCs. The fluorescence emissions at 481 nm (1-AMA bound state) and 340 nm (tryptophan emission) were recorded. A progressive decrease of 1-AMA fluorescence emission and a partial recovery of the protein tryptophan emission were observed. This trend indicates the displacement of 1-AMA from the protein binding site by individual selected VOCs. The variations in the FRET signals, due to competitive binding, were used to quantify the VOC bound to the protein.
Steady-state fluorescence measurements were conducted using an ISS K2 Frequency-Domain Fluorometer (ISS Inc., Champaign, IL, USA) with a 1.0 cm path length quartz cuvette. Fluorescence spectra of bOBP and pOBP samples were recorded, ensuring optical densities below 0.1 OD at 295 nm to prevent inner filter effects. Tryptophan (Trp) residues were excited at 295 nm, and fluorescence emission spectra were collected from 320 nm to 600 nm at 1 nm intervals, with a scan speed of 100 nm/min and excitation and emission slit widths set at 1.0 nm. The lamp power was maintained at 17.5 A. Assays were performed in 500 μL of phosphate saline buffer (PBS) at pH 7.4. The OBPs-VOCs interactions were studied by a fluorescence titration approach. For this purpose, the protein (12 µM, saturated with 1-AMA) was titrated with increasing concentrations of the tested VOC. The measurements were carried out in triplicate, and the obtained experimental data were processed by OriginPro 2021b software.
For the fluorometric competitive assay, the ability of OBPs to bind VOCs and 1-AMA was utilized to develop a FRET-based assay. The competition between VOCs and 1-AMA for binding to the OBP’s active site was studied by monitoring the fluorescence emission decrease consequent to the VOCs displacement of 1-AMA from the OBP’s active site. […] The measurements were carried out in triplicate, and the data were analyzed using the OriginPro 2021b software.

[3] = molecular target: T2, pOBP; experiment: Thermal denaturation of pOBP by tryptophan fluorescence; format: physicochemical, porcine; settings: for effect of VOC on thermal stability (Tm) of pOBP: saturating concentrations: 1-pentanol 50 mM, 1-octen-3-ol 5 mM, 2-butanone 10 mM
Method: (§2) Thermal stability studies were conducted to evaluate the temperature-induced denaturation of the pOBP and bOBP. The experiments aimed to determine the unfolding dynamics of these proteins and assess the influence of VOCs on protein stability. The thermal stabilities of pOBP and bOBP were monitored by fluorescence spectroscopy. The temperature-dependent fluorescence emission spectra were recorded in the range 320–410 nm, with excitation at 295 nm to selectively excite tryptophan residues.
(§3) Boltzmann fitting was applied to describe the thermal denaturation behavior and determine the melting temperature (Tm) values, defined as the midpoint of the transition between the folded and unfolded states. The calculated Tm values were 62 ± 0.4 °C for pOBP (Figure 6b) and 54 ± 0.5 °C for bOBP (Figure 7b).
(§4) To analyze the protein’s thermal stability, studies on temperature-induced denaturation were conducted on the chosen OBPs in the absence and presence of the selected VOCs. The emission spectra were recorded at an excitation wavelength of 295 nm to focus only on the contribution of tryptophan residues with a 12 μM pOBP sample, with an optical density around 0.1 OD at 295 nm.
Fluorescence intensity variation was recorded in the temperature range from 25 to 95 °C and the emission spectra acquired in the wavelength range 320–410 nm. Measurements were performed in triplicate after 10 min of incubation at defined temperatures. […] To analyze the thermal denaturation data, OriginPro 2021b software was used.

[4] = molecular target: bovine serum albumin (BSA) (Bos taurus, UniProt P02769); experiment: HS-SPME/GC-MS binding assay with BSA (negative control protein); settings: BSA in place of pOBP; 10 µM volatile, overnight, room temperature
Method: Afterwards, the fiber (DVB-Carboxen-PDMS, 2 cm length SUPELCO, Bellefonte, PA, USA) was automatically inserted in the vial for 60 min and then desorbed for 10 min at 250 °C in the injector port of a GC, model 7890A, Agilent (Agilent Technologies, Santa Clara, CA, USA) coupled to a mass spectrometer, model 5975 C (Agilent), where VOCs were thermally released and directly transported to a capillary column HP-Innowax (30 m × 0.25 mm × 0.5 µm Agilent J&W) for analysis. The oven temperature was set as follows: 40 °C for 1 min, ramped to 160 °C at 6 °C min^−1, then, after 1 min, increased 10 °C min^−1 to 210 °C, and finally ramped to 230 °C at 15 °C min^−1, and kept there for 5 min. The temperatures of the ion source and the quadrupole were 230 °C and 150 °C, respectively, and helium at a flow rate of 1.0 mL min^−1 was the carrier gas. The analyses were carried out using the pulsed spitless mode, and mass spectra were recorded at an ionization energy of 70 eV, with mass selective detector operating in the mass range between 30 and 300 u. […]
Linear retention indices (LRIs) were calculated using the same chromatographic conditions by injecting C8–C40 n-alkane series (Supelco, Bellefonte, PA, USA). VOCs were identified by comparing the mass spectra reported in the NIST-2014 and Wiley 7.0 libraries by matching the calculated LRI with the literature data and by valuating their retention times, with respect to those of pure standards, if available. The VOCs concentrations were expressed as the equivalent of the IS (percent ratio of the respective peak area relative to the IS area, RPA%), and areas were taken from the total ion chromatogram (TIC) according to the following equation: (Peak Area of each VOC/Peak Area IS) × 100. […]

[5] = molecular target: T2, pOBP; experiment: HS-SPME/GC-MS binding assay with pOBP; set-up: species or system porcine; settings: pOBP 30 µM; 10 µM volatile, overnight, room temperature
Method: To assess the ability of pOBP to bind VOCs, HS-SPME/GC-MS analyses were carried out on binding assays in the absence and in the presence of the two OBPs. Binding assay experiments were conducted in parallel on samples in the absence (only buffer as negative control) and in the presence of bovine serum albumin (BSA) (used as negative control of protein) or pOBP.
The HS-SPME/GC-MS technique was used to evaluate the VOCs profiles of samples of raw cow milk and, successively, the ability of purified OBPs to bind to selected VOCs in the gas phase. According to Sacchi et al., 5 mL of milk were introduced in a HS-SPME 20 mL glass vial, with 5 µL of a standard solution of 2-methyl-3-pentanone used as internal standard (IS, 5 mM). Samples were equilibrated for 30 min at 55 °C to release VOCs. […] The analyses were carried out using the pulsed spitless mode, and mass spectra were recorded at an ionization energy of 70 eV, with mass selective detector operating in the mass range between 30 and 300 u. […]
Linear retention indices (LRIs) were calculated using the same chromatographic conditions by injecting C8–C40 n-alkane series (Supelco, Bellefonte, PA, USA). VOCs were identified by comparing the mass spectra reported in the NIST-2014 and Wiley 7.0 libraries by matching the calculated LRI with the literature data and by valuating their retention times, with respect to those of pure standards, if available. The VOCs concentrations were expressed as the equivalent of the IS (percent ratio of the respective peak area relative to the IS area, RPA%), and areas were taken from the total ion chromatogram (TIC) according to the following equation: (Peak Area of each VOC/Peak Area IS) × 100.
Using the same experimental parameters reported above, HS-SPME/GC-MS analysis was also performed on pOBP samples with and without exposition to the HS of the selected VOCs. […] The peak areas measured for PBS-only and pOBP-comprising samples were compared for each experiment. […]

[6] = molecular target: T3, bOBP; experiment: Thermal denaturation of bOBP by tryptophan fluorescence; format: physicochemical, bovine; settings: saturating VOC concentrations
Method: as §2, §3, §4
Fluorescence intensity variation was recorded in the temperature range from 25 to 95 °C and the emission spectra acquired in the wavelength range 320–410 nm. […]

[7] = molecular target: T2, pOBP; set-up: method as in earlier work; settings: HS-DSC, neutral pH; ref 21 (Staiano et al. 2007); cited from earlier work
[8] = molecular target: T2, pOBP; experiment: Fluorescence quenching (Stern-Volmer) of pOBP; set-up: species or system porcine; settings: acrylamide quencher, no VOC
Method: To study the protein conformational changes and accessibility to the tryptophan residues, fluorescence quenching experiments were conducted. According to Lakowicz, acrylamide is the most suitable quencher for tryptophan fluorescence. The quenching effect of acrylamide on the intrinsic fluorescence of the protein was analyzed. The study aimed to characterize the accessibility of tryptophan residues, to differentiate between static and dynamic quenching mechanisms, and to assess the effects of the VOCs binding on protein stability. Fluorescence quenching can occur through two primary mechanisms: dynamic (collisional) and static quenching. Dynamic quenching occurs when acrylamide molecules collide with the fluorophore in its excited state, facilitating a non-radiative energy transfer or electron exchange. […]
To evaluate the solvent accessibility of the OBP’s tryptophan residues, a fluorescence quenching assay was performed using acrylamide. […] Fluorescence emission spectra were acquired using an excitation wavelength of 295 nm and emission range from 310 to 410 nm.
Quenching data were evaluated using the Stern–Volmer equation by plotting F0/F against [Q], where F0 represents the fluorescence intensity without quencher, F is the fluorescence intensity in the presence of quencher, and [Q] denotes the quencher concentration [Equation (2)]:(2) F0/F=1+KSV [Q]

[9] = competitive titration with VOC, Figure 4 insets, read-out: k (Hill fit), decrease of 1-AMA emission at 481 nm, pOBP
[10] = non-linear fitting, PBS pH 7.4, VOCs by displacement of 1-AMA, read-out: pOBP Kd ± SD

Chain of bovine serum albumin (BSA) (P02769 25-607): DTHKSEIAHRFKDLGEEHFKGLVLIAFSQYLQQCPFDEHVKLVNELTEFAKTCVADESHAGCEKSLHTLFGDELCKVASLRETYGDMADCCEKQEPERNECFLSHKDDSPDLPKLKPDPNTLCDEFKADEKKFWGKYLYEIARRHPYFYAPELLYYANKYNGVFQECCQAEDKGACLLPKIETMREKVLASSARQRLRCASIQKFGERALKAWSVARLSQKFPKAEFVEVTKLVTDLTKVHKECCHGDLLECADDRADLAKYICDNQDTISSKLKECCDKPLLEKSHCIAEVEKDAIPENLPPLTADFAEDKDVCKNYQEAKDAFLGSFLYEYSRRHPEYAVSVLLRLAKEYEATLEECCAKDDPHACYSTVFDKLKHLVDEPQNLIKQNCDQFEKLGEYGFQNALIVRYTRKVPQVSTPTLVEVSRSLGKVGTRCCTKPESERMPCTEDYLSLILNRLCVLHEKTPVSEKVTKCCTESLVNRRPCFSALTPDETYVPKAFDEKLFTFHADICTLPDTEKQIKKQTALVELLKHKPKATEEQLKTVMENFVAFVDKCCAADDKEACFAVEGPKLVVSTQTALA

Row | Molecule | Kd [1] [µM] | Kd [2] [µM] | Tm of pOBP in the presence of VOC ([3]; saturating VOC concentration (1-octen-3-ol 5 mM)) [°C] | effect of VOC on thermal stability (Tm) of pOBP [3] | %RPA, BSA [4] [%RPA] | Kd [2, 9] [µM] | Kd [2, 10] [µM] | %RPA, pOBP [5] [%RPA] | effect of VOC on thermal stability (Tm) of bOBP [6] | melting temperature (Tm) of pOBP ([3]; no VOC, Boltzmann fitting, emission 340 nm, 25-95 °C) [°C] | unfolding transition temperature of pOBP [7] | Stern-Volmer constant K_SV, pOBP [8] [M^−1]
1 | Nc1cccc2cc3ccccc3cc12 [1-AMA, 1-aminoanthracene, reference compound] | 2.68 ± 0.46 | 2.03 ± 0.13 | – | – | – | – | – | – | – | – | – | –
2 | C=CC(O)CCCCC (stereo not drawn) [1-octen-3-ol] | – | – | 64 ± 1.45 | significantly stabilized | 226.7 ± 8.9 | 479 | 479 ± 53 | 708.1 ± 2.7 | – | – | – | –
3 | CCCCCO [1-pentanol] | – | – | – | significantly stabilized | 242.5 ± 5.1 | 1860 | 1800 ± 1200 | 425.0 ± 8.3 | highest stability | – | – | –
4 | CCC(C)=O [2-butanone] | – | – | – | significantly stabilized | 276.2 ± 2.7 | – | 934 ± 56 | 926.7 ± 10.3 | – | – | – | –
5 | B1 | – | – | – | – | – | – | – | – | – | 62 ± 0.4 | approximately 69 °C | 3 ± 1
